Measurements reported in paper PMC8467532, “DYRK1A Kinase Inhibitors Promote β-Cell Survival and Insulin Homeostasis” (Cells, 2021).

Assays:
INS-1E and MIN6 cells [1] = experiment: GSIS and insulin, C-peptide, glucagon staining (flow cytometry, confocal); assay type: cell-based, rat, mouse; design: key to insulin+ / glucagon+ / C-peptide+: ↑: moderate; ↑↑: most potent
Description: Cells were cultured in a low glucose medium (5.5 mM) for 24 h. After this medium was changed to lower glucose medium (2 mM) for 2 h and then for high glucose medium (25 mM) for 30 min, media were harvested and/or cells were used for further analysis.
The presence of insulin, glucagon, C-peptide, Ki67, and DYRK1A was assessed in MIN6 and INS-1E pancreatic cell lines. Before imaging, cells were seeded onto slides at a density of 1 × 10^5 cells and maintained at 37 °C in 95% atmospheric air and 5% CO2 in a humidified atmosphere for 24 h. After washing with fresh medium, cells were incubated with 5 µM inhibitor solution for 24 h. After this time, the solution was replaced with a culture medium for another 48 h. The cells were fixed. Then after washing and permeabilization, they were incubated with specific antibodies diluted in PBS. Next, the cells were incubated for 10 min with Hoechst33342 (Sigma-Aldrich). After incubation, at 37 °C, in the dark, the cells were washed twice with HBSS (Gibco), the slide was transferred to a microscope table, and the cells were visualized under a Zeiss LSM 880 confocal microscope (Carl Zeiss, Jena, Germany) with a 63× immersion objective. Images were analyzed by Zeiss ZEN Software.
The presence of insulin, glucagon, C-peptide, Ki67 and DYRK1A was assessed in MIN6 and INS-1E pancreatic cell lines. Before analysis, cells were seeded onto slides at a density of 1 × 10^5 cells and maintained at 37 °C in 95% atmospheric air and 5% CO2 in a humidified atmosphere for 24 h. After washing with fresh medium, cells were incubated with 5 µM inhibitor solution for 24 h. After this time, the solution was replaced with a culture medium for another 48 h. The cells were then detached from the plate using trypsin. The cells were fixed. Then after washing and permeabilization, they were incubated with specific antibodies diluted in PBS. Cells were analyzed with BDAccuri flow cytometer and calculated using FlowJo software (Ashland, Oregon-based FlowJo LLC, a subsidiary of Becton Dickinson).

INS-1E and MIN6 cells [2] = experiment: MTT cytotoxicity and cell survival assay, β-cell lines
INS-1E and MIN6 cells [3] = experiment: Ki67 proliferation analysis; assay type: cell-based, rat, mouse
NFAT = NFAT luciferase reporter assay in HEK 293 NFAT cell line expressing DYRK1A; assay type: cell-based
Description: The Renilla luciferase reporter assay was performed in HEK 293 NFAT cell line, constitutively expressing DYRK1A, NFAT and Renilla luciferase under the control of an NFAT-RE promoter. The cells were seeded at 10,000 per well in 96-well white plates (Cellstar, Greiner; Burlington, MA, United States). The following day cells were incubated with the indicated concentration of inhibitor for 30 min, then the medium was changed, and cells were stimulated with 1 μM ionomycin and 10 nM PMA for 5 h. Next, the cell lysate was harvested to measure luciferase activity with Renilla-Glo Luciferase Assay System (Promega, Wisconsin, United States). All experiments were carried out in triplicates.

isolated mouse islets = experiment: Insulin secretion assay in isolated mouse islets (ELISA, immunostaining); assay type: cell-based; design: key to insulin secretion (ELISA): ↑: moderate; ↑↑: most potent
Description: The Insulin ELISA (Ultra Sensitive) was used to quantify insulin levels in control and treated organoids and isolated islets from the mouse pancreas (Crystal Chem, Downers Grove, IL, USA). Islets were homogenized in lysis buffer. Obtained buffer lysates and medium samples (after GSIS) were analyzed for total protein level and subsequently processed following the manufacturer’s protocol.
Mice (male, initially 12 weeks old) were sacrificed by cervical vertebral dislocation. Before starting the incision, their bodies were sprayed with 70% EtOH. A hemostatic clamp was placed on both sides of the small intestine, leaving a small pocket to absorb the collagenase solution into the intestine. Next, 3 mL of cold collagenase solution was introduced into the pancreas through the bile duct. The pancreas was removed from the body and placed in a falcon tube containing 2 mL of collagenase solution. The tube was placed in a water bath at 37 °C. It was incubated for 13 min. At the end of this time, the falcon was shaken vigorously. The collagenase was inactivated with FBS. The sample was centrifuged for 30 s (300× g). This step was repeated 3 times. HBSS was then added to the sample and centrifuged two more times at the same speed as before. After the last centrifugation, HBSS was removed and Percoll (1.045 g/mL) (Sigma-Aldrich) was added. The Percoll solution was left to sediment for 5 min. After this time, the islets were collected from the bottom of the falcon. The step was repeated 3 times. Finally, islets were cultured in RPMI-1640 (Pan Biotech) supplemented with 2 mM L-glutamine (Gibco), 10% fetal bovine serum (FBS) and 1% penicillin/streptomycin and the culture medium was changed daily.
The presence of insulin, C-peptide, glucagon, Pdx-1 and Nkx6.1 was assessed in isolated mouse islets. Islets were fixed in PFA (3.8%) for 30 min, washed with PBS and 0.15% Triton X-100 was added for 1.5 h, then washed again with PBS and samples were transferred to 1% BSA + 0.05% Triton X-100 solution for 3 h. After this time, islets were incubated with primary antibody for 12 h at 4 °C. The secondary antibody was then added for 3 h. Next, the islets were incubated for 10 min with Hoechst33342. After incubation, at 37 °C, in the dark, the samples were washed twice with HBSS, the slide was transferred to a microscope table and the cells were visualized under a Zeiss LSM 880 confocal microscope (Carl Zeiss, Jena, Germany) with a 63× immersion objective. Images were analyzed by Zeiss ZEN Software.

[4] = combination with TGF-β inhibitors
[5] = high glucose, day 4 after treatment

O=c1ccc2cnc3ccc(-c4cn[nH]c4)cc3c2n1-c1ccc(F)cc1C(F)(F)F [AC27, 1-(4-fluoro-2-(trifluoromethyl)phenyl)-9-(1H-pyrazol-4-yl)benzo[h][1, 6]naphthyridin-2-one]
glucagon level (INS-1E and MIN6 cells [1]; 5 μM, compound alone): balanced (lower) glucagon level | insulin/C-peptide secretion (INS-1E and MIN6 cells [1]; GSIS, compound alone): higher insulin/C-peptide secretion | C-peptide+ (INS-1E and MIN6 cells [1]; Table 2, Cell lines): ↑↑ | glucagon+ (INS-1E and MIN6 cells [1]; Table 2, Cell lines): ↑ | insulin+ (INS-1E and MIN6 cells [1]; Table 2, Cell lines): ↑↑ | time the effect remained stable (INS-1E and MIN6 cells [1]; after inhibitor action): up to 12 days | glucagon level after GSIS (INS-1E and MIN6 cells [1]; [4]): reduced | insulin/C-peptide secretion (INS-1E and MIN6 cells [1]; [4]): markedly improved | increase in insulin expression (INS-1E and MIN6 cells [1]; discussion statement): more than 60% | concentration without significant toxic effects (INS-1E and MIN6 cells [2]; MTT, 24 h): up to 5 μM | toxicity (INS-1E and MIN6 cells [2]; Table 2, Cell lines): no | induction of β-cell proliferation (Ki67 labeling of insulin-labeled cells) (INS-1E and MIN6 cells [3]; 5 μM, vs untreated cells): most potent in inducing β-cell proliferation | Ki67 labeling index in β-cells (INS-1E and MIN6 cells [3]; combined with RepSox or LY364947): significant increase in the Ki67 labeling index | Ki67 labeling index, difference to that without TGF-β inhibition (INS-1E and MIN6 cells [3]; combined with TGF-β inhibitors): about 5% | Ki67 labeling index (proliferation rate) (INS-1E and MIN6 cells [3]; combined with TGF-β inhibitors (RepSox, LY364947), 5 μM each): > 12% | activity relative to harmine in NFAT assay (NFAT; 1 µM AC27 gives same activity as 10 µM harmine): ~10 times | increase of NFAT activity (NFAT; low concentration range 0.03 µM–1 µM): ≤ 6 fold | insulin secretion (ELISA) (isolated mouse islets; Table 2, Isolated islets): ↑↑ | insulin secretion compared with untreated islets (isolated mouse islets; after GSIS): significantly higher | increase in insulin secretion compared with control islets (isolated mouse islets; [5]): 60% | insulin secretion, higher than with harmine (isolated mouse islets; [5]): ca. 15% | percentage of total insulin released (isolated mouse islets; secretion normalized for total insulin content): higher
